A short description of series [1]: Terminal half life in BALB/c mouse at 50 mg/kg, ip administered as liposome encapsulated form and measured upto 24 hrs by LC-MS/MS analysis. Type of series: ADME, organism-based. Conditions: in vivo, read-out: beta t1/2 (converted).
Series [2] in a line: Apparent clearance in BALB/c mouse at 25 mg/kg, ip administered as liposome encapsulated form and measured upto 24 hrs by LC-MS/MS analysis. Type of series: ADME, organism-based. Conditions: in vivo, read-out: CL(app) (converted).
A short description of series [3]: AUC (0 to t) in BALB/c mouse at 25 mg/kg, ip administered as liposome encapsulated form and measured upto 24 hrs by LC-MS/MS analysis. Type of series: ADME, organism-based. Conditions: in vivo.
The next series concerns HCT-116. The series is described as follows: Antiproliferative activity against human HCT-116 cells assessed as reduction in cell viability incubated for 72 hrs by MTT assay. Conditions: HCT-116, 72 h. It counts as functional, cell-based. (Formazan colour is commonly taken as a measure of viable cells.)
In a further series the test system is U-87 MG. The series is described as follows: Antitumor activity against human U87 cells xenografted in BALB/c nude mouse assessed as tumor growth inhibition at 12.5 mg/kg/day administered as liposome encapsulated form for 15 days and measured every 3 days by vernier caliper. Type of series: functional, U-87MG ATCC. Conditions: 360 h, time 15 day, read-out: TGI.

Series [4] can be described thus: Terminal half life in BALB/c mouse at 25 mg/kg, ip administered as liposome encapsulated form and measured upto 24 hrs by LC-MS/MS analysis. Type of series: ADME, organism-based. Conditions: in vivo, read-out: beta t1/2 (converted).
Series [5] is described as follows: AUC (0 to t) in BALB/c mouse at 12.5 mg/kg, ip administered as liposome encapsulated form and measured upto 24 hrs by LC-MS/MS analysis. Type of series: ADME, organism-based. Conditions: in vivo.
The target in series [6] is T1, Short transient receptor potential channel 5 (Homo sapiens, UniProt Q9UL62).
T1 sequence (Q9UL62 whole entry): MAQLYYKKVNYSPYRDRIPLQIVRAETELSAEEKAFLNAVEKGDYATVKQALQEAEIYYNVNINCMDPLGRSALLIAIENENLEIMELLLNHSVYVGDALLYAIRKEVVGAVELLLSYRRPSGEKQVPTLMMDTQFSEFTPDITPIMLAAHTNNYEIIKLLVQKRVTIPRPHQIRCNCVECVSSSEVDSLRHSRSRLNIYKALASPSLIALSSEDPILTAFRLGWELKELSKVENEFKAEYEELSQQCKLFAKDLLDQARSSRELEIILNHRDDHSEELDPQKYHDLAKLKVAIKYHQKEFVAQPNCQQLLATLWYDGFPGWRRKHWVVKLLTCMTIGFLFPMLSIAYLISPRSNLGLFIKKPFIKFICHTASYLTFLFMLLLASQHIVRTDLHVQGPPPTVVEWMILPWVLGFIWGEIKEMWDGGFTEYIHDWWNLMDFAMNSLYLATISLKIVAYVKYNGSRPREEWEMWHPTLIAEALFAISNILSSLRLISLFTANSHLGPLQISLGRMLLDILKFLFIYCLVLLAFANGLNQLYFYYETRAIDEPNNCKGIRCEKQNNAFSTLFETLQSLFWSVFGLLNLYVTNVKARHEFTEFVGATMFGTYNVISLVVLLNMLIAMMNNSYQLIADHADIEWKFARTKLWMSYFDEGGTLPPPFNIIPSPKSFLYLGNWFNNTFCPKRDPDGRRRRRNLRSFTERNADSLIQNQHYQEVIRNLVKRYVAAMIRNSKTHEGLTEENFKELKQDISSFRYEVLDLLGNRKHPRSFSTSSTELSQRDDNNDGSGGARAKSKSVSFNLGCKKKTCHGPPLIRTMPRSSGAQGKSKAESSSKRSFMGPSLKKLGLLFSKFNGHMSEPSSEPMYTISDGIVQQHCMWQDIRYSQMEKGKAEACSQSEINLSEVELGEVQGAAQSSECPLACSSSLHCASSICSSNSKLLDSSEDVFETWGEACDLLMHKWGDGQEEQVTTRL
The experiment in a line: Antagonist activity at human TRPC5 stably expressed in HEK293 cells inhibition of calcium influx by calcium fluorescence assay. It counts as cell-based.

The nature of series [7]: Tmax in BALB/c mouse at 50 mg/kg, ip administered as liposome encapsulated form and measured upto 24 hrs by LC-MS/MS analysis. Type of series: ADME, organism-based. Conditions: in vivo.
A short description of series [8]: AUC (0 to infinity) in BALB/c mouse at 25 mg/kg, ip administered as liposome encapsulated form and measured upto 24 hrs by LC-MS/MS analysis. Type of series: ADME, organism-based. Conditions: in vivo.
The nature of series [9]: Selectivity index, ratio of IC50 for human A549 cells to IC50 for human U87 cells. Type of series: functional.
Series [10] can be described thus: AUC (0 to infinity) in BALB/c mouse at 12.5 mg/kg, ip administered as liposome encapsulated form and measured upto 24 hrs by LC-MS/MS analysis. Type of series: ADME, organism-based. Conditions: in vivo.
Series [11] in a line: Selectivity index, ratio of IC50 for human HCT-116 cells to IC50 for human U87 cells. Type of series: functional.
Series [12] has as its target T2, Short transient receptor potential channel 7 (Homo sapiens, UniProt Q9HCX4).
T2 sequence (Q9HCX4 whole entry): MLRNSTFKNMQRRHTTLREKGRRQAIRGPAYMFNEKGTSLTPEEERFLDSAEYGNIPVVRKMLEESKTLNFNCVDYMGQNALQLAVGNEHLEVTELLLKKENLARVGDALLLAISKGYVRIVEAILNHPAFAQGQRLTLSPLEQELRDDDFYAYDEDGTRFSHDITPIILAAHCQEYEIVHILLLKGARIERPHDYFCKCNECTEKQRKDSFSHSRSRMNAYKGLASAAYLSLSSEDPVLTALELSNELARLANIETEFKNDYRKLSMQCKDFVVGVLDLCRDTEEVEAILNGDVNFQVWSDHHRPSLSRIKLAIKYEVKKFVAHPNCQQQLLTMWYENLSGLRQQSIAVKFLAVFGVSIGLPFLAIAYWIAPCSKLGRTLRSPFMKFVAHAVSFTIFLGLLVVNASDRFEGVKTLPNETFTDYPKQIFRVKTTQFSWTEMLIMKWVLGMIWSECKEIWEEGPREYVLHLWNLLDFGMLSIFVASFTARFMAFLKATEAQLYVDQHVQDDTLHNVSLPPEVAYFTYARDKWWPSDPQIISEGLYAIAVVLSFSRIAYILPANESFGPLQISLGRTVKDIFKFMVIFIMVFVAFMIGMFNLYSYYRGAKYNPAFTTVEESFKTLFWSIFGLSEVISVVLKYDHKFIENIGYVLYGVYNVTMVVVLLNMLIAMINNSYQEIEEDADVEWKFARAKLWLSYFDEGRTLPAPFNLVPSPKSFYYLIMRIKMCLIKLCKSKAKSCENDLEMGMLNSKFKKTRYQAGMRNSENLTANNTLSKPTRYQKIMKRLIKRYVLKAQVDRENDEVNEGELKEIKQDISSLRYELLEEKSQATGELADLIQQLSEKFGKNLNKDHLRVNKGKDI
The experiment in a line: Antagonist activity at human TRPC7 stably expressed in HEK293 cells inhibition of calcium influx by calcium fluorescence assay. Type of series: cell-based.

A short description of series [13]: Toxicity against BALB/c nude mouse xenografted with human U87 cells assessed as change in body weight at 12.5 to 50 mg/kg/day administered as liposome encapsulated form for 15 days. Type of series: organism-based, U-87MG ATCC. Conditions: in vivo, 360 h, dose 12.5-50 mg/kg/day, time 15 day. Background: Xenograft models place foreign cells or tissue in a host animal.

Series [14] is described as follows: Selectivity index, ratio of IC50 for human LNCaP cells to IC50 for human U87 cells. It counts as functional.

For orientation: AUC(0-t) means the area under the concentration-time curve up to a stated or last time point. Low readings indicate less exposure, high ones more exposure. The term IC50 denotes the concentration that gives 50% inhibition. By Tmax is commonly meant the time at which the peak concentration occurs. As a reminder, the AUC(0-inf) is total exposure, with the tail of the curve extrapolated. The low end stands for less exposure, the high end for more exposure. For the compound `NCCN(Cc1ccc2ccccc2c1)c1nc(C(=O)Nc2ccc(O)cc2)cs1`, the half-life was 3.8 h in series [1] and 3.4 h in series [4]. Also, in series [2], the CL/F is 60.2 mL/min/kg. Also, the exposure AUC(0-t) at 24 h came out at 6840 ng·h/mL in [3] and 2550 ng·h/mL in [5]. Further, the IC50 with HCT-116 was 9.8 µM; in series [6], 7.6 µM; in [12], 3.4 µM. In addition, in the series on U-87 MG, the inhibition in vivo at 12.5 mg/kg/day came to 36.3%. In addition, the time to peak (Tmax) in [7] stood at 4 h. In addition, the values for the AUC(0-inf) in series [8] and in series [10] were 6920 ng·h/mL and 2790 ng·h/mL, respectively. For the same compound, the “Ratio IC50” value in [9], in series [11] and in [14] was 2 each time. The Activity result in [13] is given as “Non-Toxic”.

(Values after ChEMBL document CHEMBL5518193, “Discovery of N-alkyl-N-benzyl thiazoles as novel TRPC antagonists for the treatment of glioblastoma multiforme” (Eur J Med Chem, 2024).)
